This is an account of results in ChEMBL document CHEMBL3286240, “Inhibition of Enterococcus faecalis biofilm formation by highly active lactones and lactams analogues of rubrolides” (Eur J Med Chem, 2014).

The subject of assay [1] is Enterococcus faecalis. Put plainly: Antimicrobial activity against Enterococcus faecalis assessed as bacterial growth at 2.73 ug/ml after 20 hrs by microtiter plate assay. Format: functional.
The subject of assay [2] is Enterococcus faecalis. The assay can be described thus: Antimicrobial activity against Enterococcus faecalis assessed as bacterial growth at 5.5 ug/ml after 20 hrs by microtiter plate assay. Format: functional.
Assay [3] deals with Enterococcus faecalis. Put plainly: Antimicrobial activity against Enterococcus faecalis assessed as bacterial growth at 43.8 ug/ml after 20 hrs by microtiter plate assay. Format: functional.
Assay [4] concerns Enterococcus faecalis. Put plainly: Antimicrobial activity against Enterococcus faecalis assessed as bacterial growth at 21.9 ug/ml after 20 hrs by microtiter plate assay. Format: functional.
The subject of assay [5] is Enterococcus faecalis. Put plainly: Antimicrobial activity against Enterococcus faecalis assessed as bacterial growth at 0.17 ug/ml after 20 hrs by microtiter plate assay. Format: functional.
Assay [6] concerns Enterococcus faecalis. Put plainly: Antimicrobial activity against Enterococcus faecalis assessed as bacterial growth at 87.5 ug/ml after 20 hrs by microtiter plate assay. Format: functional.
Assay [7] has as its system Enterococcus faecalis. The assay can be described thus: Antimicrobial activity against Enterococcus faecalis assessed as bacterial growth at 0.34 ug/ml after 20 hrs by microtiter plate assay. Format: functional.
Assay [8] has as its system Enterococcus faecalis. The assay can be described thus: Antimicrobial activity against Enterococcus faecalis assessed as inhibition of biofilm formation after 20 hrs by crystal violet staining analysis. Format: functional, organism-based.
The test system of assay [9] is Enterococcus faecalis. The assay can be described thus: Antimicrobial activity against Enterococcus faecalis assessed as bacterial growth at 10.9 ug/ml after 20 hrs by microtiter plate assay. Format: functional.
Assay [10] deals with Enterococcus faecalis. The assay can be described thus: Antimicrobial activity against Enterococcus faecalis assessed as bacterial growth at 1.37 ug/ml after 20 hrs by microtiter plate assay. Format: functional.
Assay [11] deals with Enterococcus faecalis. The assay can be described thus: Antimicrobial activity against Enterococcus faecalis assessed as bacterial growth at 0.68 ug/ml after 20 hrs by microtiter plate assay. Format: functional.

≈ marks a conversion by molar mass, not a printed value. Some results are limits rather than exact numbers.

`COc1ccccc1C1=C(Br)C(=O)N(CC(C)C)/C1=C/c1ccc(C(F)(F)F)cc1`: the Activity is on record as 10.9% in the assay on Enterococcus faecalis [1]; 9.2% in the assay with Enterococcus faecalis [2]; 17.5% in the assay with Enterococcus faecalis [3]; 15.8% in the assay on Enterococcus faecalis [4]; 3.3% with Enterococcus faecalis [5]; -18.9% in the assay with Enterococcus faecalis [6]. Also, the Activity in the assay with Enterococcus faecalis [7] is on record as 0.4%; with Enterococcus faecalis [9] it was 11.1%; with Enterococcus faecalis [10], 1.6%; with Enterococcus faecalis [11] it was 2.3%. Also, in the assay with Enterococcus faecalis [8], the IC50 – broadly, the concentration needed to halve the response being measured – stood at 2.96 µg/mL (≈ 6.16 µM).

For the compound `COc1ccc(C)cc1C1=C(Br)C(=O)N(CC(C)C)/C1=C\c1ccccc1Cl`, the Activity in the assay on Enterococcus faecalis [1] is recorded as 33%; with Enterococcus faecalis [2], 41.9%; in the assay on Enterococcus faecalis [3], 62.1%; in the assay on Enterococcus faecalis [4], 52.2%; in the assay with Enterococcus faecalis [5], -4.2%; in the assay on Enterococcus faecalis [6] it was 95.3%. Further, the Activity with Enterococcus faecalis [7] is on record as -7.4%; in the assay with Enterococcus faecalis [9], 45.1%; with Enterococcus faecalis [10], 24.6%; in the assay on Enterococcus faecalis [11], 6.9%. The IC50 with Enterococcus faecalis [8] was 1.09 µg/mL (≈ 2.37 µM).

Regarding `COc1cccc(/C=C2\OC(=O)C(Br)=C2c2cc(Cl)ccc2OC)c1`, the Activity in the assay with Enterococcus faecalis [1] is reported as 11.8%; in the assay on Enterococcus faecalis [2], 9.7%; with Enterococcus faecalis [3], 24.1%; with Enterococcus faecalis [4], 19.7%; in the assay with Enterococcus faecalis [5], -1.5%; with Enterococcus faecalis [6], 40.5%. In addition, the Activity with Enterococcus faecalis [7] was -4.1%; with Enterococcus faecalis [9], 9.2%; in the assay on Enterococcus faecalis [10], 0.3%; in the assay on Enterococcus faecalis [11] it was -5.6%. Further, in the assay on Enterococcus faecalis [8], the IC50 is 53.1 µg/mL (≈ 126 µM).

Regarding `COc1ccc(Cl)cc1C1=C(Br)C(=O)N(CC(C)C)C1(O)Cc1ccccc1Br` (stereo unspecified), the Activity with Enterococcus faecalis [1] was 30.2%; with Enterococcus faecalis [2], 32.4%; with Enterococcus faecalis [3], 53.9%; with Enterococcus faecalis [4], 38.4%; with Enterococcus faecalis [5], -5.1%; in the assay with Enterococcus faecalis [6] it was 78%. Besides, the Activity in the assay on Enterococcus faecalis [7] was -1.9%; in the assay on Enterococcus faecalis [9] it was 36.7%; in the assay with Enterococcus faecalis [10] it was 19.3%; with Enterococcus faecalis [11], -10.6%. Moreover, the IC50 in the assay with Enterococcus faecalis [8] is 1.29 µg/mL (≈ 2.37 µM).

`COc1ccccc1C1=C(Br)C(=O)N(CC(C)C)/C1=C\c1ccc(C(F)(F)F)cc1`: the Activity in the assay with Enterococcus faecalis [1] was -6.6%; in the assay with Enterococcus faecalis [2], -8%; in the assay on Enterococcus faecalis [3], 11.2%; in the assay with Enterococcus faecalis [4] it was 4%; in the assay on Enterococcus faecalis [5], -2.4%; with Enterococcus faecalis [6] it was 45%. The Activity in the assay on Enterococcus faecalis [7] is on record as -10.4%; in the assay with Enterococcus faecalis [9], -4.2%; in the assay with Enterococcus faecalis [10], -5.2%; with Enterococcus faecalis [11] it was -10.2%. The half-inhibitory concentration (IC50) in the assay on Enterococcus faecalis [8] was determined as 12 µg/mL (≈ 25 µM).

Turning to `COc1cccc(/C=C2/C(c3cc(Cl)ccc3OC)=C(Br)C(=O)N2CC(C)C)c1`, the Activity with Enterococcus faecalis [1] was 29.1%; in the assay on Enterococcus faecalis [2], 42.5%; in the assay with Enterococcus faecalis [3], 55.6%; with Enterococcus faecalis [4], 45.7%; in the assay on Enterococcus faecalis [5], 0.2%; in the assay on Enterococcus faecalis [6], 94.6%. Further, the Activity in the assay on Enterococcus faecalis [7] was 2.5%; with Enterococcus faecalis [9] it was 39.3%; with Enterococcus faecalis [10], 21%; in the assay with Enterococcus faecalis [11], 5.9%. Further, in the assay with Enterococcus faecalis [8], the concentration for half-maximal inhibition (IC50) worked out at 1.46 µg/mL (≈ 3.06 µM).

For the compound `COc1ccc(Br)cc1C1=C(Br)C(=O)N(CC(C)C)/C1=C\c1cccc(Cl)c1`, the Activity with Enterococcus faecalis [1] turned out to be 27%; in the assay on Enterococcus faecalis [2], 21.8%; in the assay with Enterococcus faecalis [3] it was 26.3%; in the assay with Enterococcus faecalis [4], 20.4%; with Enterococcus faecalis [5], 9.3%; with Enterococcus faecalis [6] it was 94.2%. Also, the Activity with Enterococcus faecalis [7] is 12.1%; in the assay with Enterococcus faecalis [9], 20%; with Enterococcus faecalis [10], 25.1%; with Enterococcus faecalis [11], 17.9%. Moreover, the IC50 in the assay on Enterococcus faecalis [8] came to 3.31 µg/mL (≈ 6.3 µM).

For `COc1ccc(Cl)cc1C1=C(Br)C(=O)O/C1=C\c1ccccc1Br`, the Activity was found to be 23.8% with Enterococcus faecalis [1]; 36.3% in the assay on Enterococcus faecalis [2]; 47% with Enterococcus faecalis [3]; 47.5% with Enterococcus faecalis [4]; 0.8% in the assay on Enterococcus faecalis [5]; 68.7% with Enterococcus faecalis [6]. Further, the Activity in the assay with Enterococcus faecalis [7] was -4.7%; in the assay on Enterococcus faecalis [9] it was 33.2%; in the assay with Enterococcus faecalis [10] it was -0.8%; in the assay on Enterococcus faecalis [11] it was -3.4%. In the assay with Enterococcus faecalis [8], the IC50 is over 87.5 µg/mL.

In the case of `COc1ccc(C)cc1C1=C(Br)C(=O)N(CC(C)C)C1(O)Cc1cccc(Cl)c1` (stereo unspecified), the Activity in the assay with Enterococcus faecalis [1] was 4.8%; in the assay with Enterococcus faecalis [2], 4.2%; in the assay on Enterococcus faecalis [3], 36.8%; in the assay on Enterococcus faecalis [4], 24.9%; in the assay on Enterococcus faecalis [5] it was -2.5%; in the assay with Enterococcus faecalis [6] it was 53.1%. Further, the Activity was 0.7% with Enterococcus faecalis [7], 5.8% in the assay on Enterococcus faecalis [9], 2.1% in the assay on Enterococcus faecalis [10] and 3.3% in the assay with Enterococcus faecalis [11]. The IC50 with Enterococcus faecalis [8] was over 87.5 µg/mL.

As for `COc1ccc(Br)cc1C1=C(Br)C(=O)N(CC(C)C)/C1=C\c1ccc(Br)cc1`, the Activity in the assay with Enterococcus faecalis [1] was 33.9%; in the assay with Enterococcus faecalis [2] it was 43%; with Enterococcus faecalis [3], 59.7%; with Enterococcus faecalis [4], 58.1%; in the assay with Enterococcus faecalis [5], -2.2%; in the assay with Enterococcus faecalis [6], 82.8%. Also, the Activity is 0.3% in the assay on Enterococcus faecalis [7], 55.9% with Enterococcus faecalis [9], 17.5% in the assay with Enterococcus faecalis [10] and -1.3% in the assay on Enterococcus faecalis [11]. For the same compound, in the assay on Enterococcus faecalis [8], the concentration for half-maximal inhibition (IC50) came out at 6.62 µg/mL (≈ 11.6 µM).

As to `COc1ccc(Br)cc1C1=C(Br)C(=O)N(CC(C)C)/C1=C/c1cccc(Cl)c1`, the Activity in the assay with Enterococcus faecalis [1] came out at 42.5%; with Enterococcus faecalis [2] it was 48.8%; in the assay on Enterococcus faecalis [3], 75.5%; in the assay with Enterococcus faecalis [4], 67.3%; in the assay with Enterococcus faecalis [5] it was 16.1%; in the assay with Enterococcus faecalis [6] it was 98.2%. The Activity in the assay with Enterococcus faecalis [7] is given as 20.1%; in the assay on Enterococcus faecalis [9] it was 57.3%; with Enterococcus faecalis [10] it was 33%; with Enterococcus faecalis [11] it was 23.5%. Further, the IC50 with Enterococcus faecalis [8] amounted to 3.46 µg/mL (≈ 6.58 µM).
